{"source": "paper PMC4014619", "about": "“Slc26a7 Chloride Channel Activity and Localization in Mouse Reissner’s Membrane Epithelium” (PLoS ONE, 2014)", "target": "T1, Slc26a7 (Mus musculus, UniProt Q8R2Z3)", "T1 construct": "native full-length channel in Reissner's membrane epithelial cells (basolateral membrane); Slc26a7 knockout mice as control", "T1 sequence (Q8R2Z3 1-656)": "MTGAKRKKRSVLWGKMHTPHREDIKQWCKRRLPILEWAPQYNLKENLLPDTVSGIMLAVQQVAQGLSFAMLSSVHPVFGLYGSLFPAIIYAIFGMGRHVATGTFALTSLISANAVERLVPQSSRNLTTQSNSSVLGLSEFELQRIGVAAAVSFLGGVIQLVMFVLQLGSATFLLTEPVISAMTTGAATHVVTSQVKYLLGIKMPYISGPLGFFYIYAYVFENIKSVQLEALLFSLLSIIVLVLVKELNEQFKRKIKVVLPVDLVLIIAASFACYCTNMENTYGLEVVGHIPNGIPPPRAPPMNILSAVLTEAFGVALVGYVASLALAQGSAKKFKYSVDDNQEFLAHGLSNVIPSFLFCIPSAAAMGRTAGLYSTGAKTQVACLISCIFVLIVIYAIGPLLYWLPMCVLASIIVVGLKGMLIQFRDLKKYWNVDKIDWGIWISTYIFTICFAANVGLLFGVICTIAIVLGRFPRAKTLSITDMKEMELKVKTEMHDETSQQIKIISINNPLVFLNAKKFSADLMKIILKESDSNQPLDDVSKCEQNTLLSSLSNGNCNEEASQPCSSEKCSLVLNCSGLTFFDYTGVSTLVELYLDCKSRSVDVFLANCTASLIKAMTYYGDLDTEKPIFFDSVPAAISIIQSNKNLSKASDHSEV", "experiment": "whole-cell patch clamp, wild-type versus Slc26a7 knockout native epithelial cells", "format": "cell-based", "details": "NMDG-Cl pipette, NO3-rich versus Cl-rich bath, +80 mV, pH 7.3, 37 °C; native cells with other anion channels present", "data": [{"molecule": "O=[N+]([O-])O", "note": "[NO3 ^−]", "values": [{"measurement": "whole-cell patch clamp, wild-type versus Slc26a7 knockout native epithelial cell", "result": "elevated NO3 ^− current in wild-type cells being mediated by the Slc26a7 Cl^− channel"}]}]}
